Data reported in PMC9070634 (Cell, 2021).

Experiments:
BcPycC = biological target: T1, BcPycC (Burkholderia cepacia, UniProt A0A0J5ZXG5); assay: HPLC; assay type: biochemical; settings: 10 mM MgCl2, 1 mM MnCl2, 37 C
T1 sequence (A0A0J5ZXG5 1-229 limits assumed): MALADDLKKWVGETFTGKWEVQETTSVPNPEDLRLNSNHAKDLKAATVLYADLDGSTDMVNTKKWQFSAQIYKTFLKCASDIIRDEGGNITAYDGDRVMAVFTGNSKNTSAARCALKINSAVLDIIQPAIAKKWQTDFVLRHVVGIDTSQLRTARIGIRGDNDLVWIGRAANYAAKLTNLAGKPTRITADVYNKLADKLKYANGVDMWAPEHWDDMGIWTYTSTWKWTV

BcPycTIR [1] = biological target: T2, BcPycTIR (Burkholderia cepacia, UniProt A0A0J5WTU0); assay: HPLC of NAD+ cleavage; assay type: biochemical; settings: 500 uM NAD+, 500 nM protein, 250 nM cUMP as activator, 25 C, 1 h
T2 sequence (A0A0J5WTU0 1-303): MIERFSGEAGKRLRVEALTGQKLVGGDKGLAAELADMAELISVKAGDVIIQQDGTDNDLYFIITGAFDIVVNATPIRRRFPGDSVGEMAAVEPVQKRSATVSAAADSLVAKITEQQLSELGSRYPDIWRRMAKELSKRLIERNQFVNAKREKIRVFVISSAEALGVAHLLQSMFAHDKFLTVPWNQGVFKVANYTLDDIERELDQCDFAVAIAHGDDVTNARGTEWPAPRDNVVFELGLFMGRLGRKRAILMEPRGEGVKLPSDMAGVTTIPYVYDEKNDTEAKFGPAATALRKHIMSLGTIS

PaPycC = PaPycC (Pseudomonas aeruginosa, UniProt P0DV40); assay: thin-layer chromatography with alpha-32P-UTP; assay type: biochemical; settings: labelled compound (trace); 10 mM MgCl2, 1 mM MnCl2, pH 8.5, 37 C
Chain of PaPycC (P0DV40 whole entry): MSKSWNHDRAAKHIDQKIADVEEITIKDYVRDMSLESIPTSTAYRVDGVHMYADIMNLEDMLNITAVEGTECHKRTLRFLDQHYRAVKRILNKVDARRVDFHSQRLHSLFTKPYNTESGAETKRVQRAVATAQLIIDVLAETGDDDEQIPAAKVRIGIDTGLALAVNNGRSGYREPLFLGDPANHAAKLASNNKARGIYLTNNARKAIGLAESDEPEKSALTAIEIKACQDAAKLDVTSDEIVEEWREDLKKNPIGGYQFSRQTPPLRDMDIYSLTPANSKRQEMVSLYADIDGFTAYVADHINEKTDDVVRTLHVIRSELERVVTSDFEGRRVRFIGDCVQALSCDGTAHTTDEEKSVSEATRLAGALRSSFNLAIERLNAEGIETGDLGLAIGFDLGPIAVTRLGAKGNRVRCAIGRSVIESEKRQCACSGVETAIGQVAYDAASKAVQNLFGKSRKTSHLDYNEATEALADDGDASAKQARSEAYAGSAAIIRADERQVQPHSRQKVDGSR

BcPycTIR [2] = biological target: T2, BcPycTIR; assay: fluorescence plate reader, initial rates; assay type: biochemical; settings: 500 uM substrate, 1 uM protein, cUMP as activator, pH 7.5, 100 mM KCl
crystal structure = biological target: the molecule itself; assay: crystal structure
[3] = biological target: the molecule itself; assay: negative stain electron microscopy

Molecule: O=c1ccn([C@@H]2O[C@@H]3COP(=O)(O)O[C@H]3[C@H]2O)c(=O)[nH]1 [cUMP]
- HPLC; MSMS against standard (BcPycC): MSMS fragmentation spectra of a cUMP standard (bottom) and the BcPycC cyclase product (top)

Molecule: NC(=O)c1ccc[n+]([C@@H]2O[C@H](COP(=O)(O)OP(=O)(O)OC[C@H]3O[C@@H](n4cnc5c(N)ncnc54)[C@H](O)[C@@H]3O)[C@@H](O)[C@H]2O)c1 [NAD^+]
- HPLC of NAD+ cleavage (BcPycTIR [1]): Incubation of BcPycTIR with cUMP triggered robust NADase activity

Molecule: O=c1ccn([C@@H]2O[C@H](COP(=O)(O)OP(=O)(O)OP(=O)(O)O)[C@@H](O)[C@H]2O)c(=O)[nH]1 [UTP]
- thin-layer chromatography with alpha-32P-UTP (PaPycC): demonstrated that PaPycC is an active uridylate cyclase

Molecule: NC(=O)c1ccc[n+]([C@@H]2O[C@H](COP(=O)(O)OP(=O)(O)OC[C@H]3O[C@@H](n4cnc5c4ncn4ccnc54)[C@H](O)[C@@H]3O)[C@@H](O)[C@H]2O)c1 [ε-NAD^+]
- fluorescence plate reader, initial rates (BcPycTIR [2]): NAD^+ cleavage activity of BcPycTIR using the fluorescent substrate ε-NAD^+

B1: clade B uridylate cyclase from Burkholderia cepacia LK29 (BcPycC) (enzyme)
chain: ALADDLKKWVGETFTGKWEVQETTSVPNPEDLRLNSNHAKDLKAATVLYADLDGSTDMVNTKKWQFSAQIYKTFLKCASDIIRDEGGNITAYDGDRVMAVFTGNSKNTSAARCALKINSAVLDIIQPAIAKKWQTDFVLRHVVGIDTSQLRTARIGIRGDNDLVWIGRAANYAAKLTNLAGKPTRITADVYNKLADKLKYANGVDMWAPEHWDDMGIWTYTSTWKWTV
- binding result (crystal structure): binds

B2: TIR-domain effector protein from Burkholderia cepacia LK29 (BcPycTIR) (enzyme)
chain: MIERFSGEAGKRLRVEALTGQKLVGGDKGLAAELADMAELISVKAGDVIIQQDGTDNDLYFIITGAFDIVVNATPIRRRFPGDSVGEMAAVEPVQKRSATVSAAADSLVAKITEQQLSELGSRYPDIWRRMAKELSKRLIERNQFVNAKREKIRVFVISSAEALGVAHLLQSMFAHDKFLTVPWNQGVFKVANYTLDDIERELDQCDFAVAIAHGDDVTNARGTEWPAPRDNVVFELGLFMGRLGRKRAILMEPRGEGVKLPSDMAGVTTIPYVYDEKNDTEAKFGPAATALRKHIMSLGTIS
- binding result [3]: binds
